Patent US7943637B2, “Thienopyridine derivatives and the use thereof as HSP90 modulators” (Merck Patent GmbH, priority 2005, dated 2011)
pIC50: −log10 of the molar value.

Target: T1, Recombinant human HSP90α (Homo sapiens, UniProt P07900)
T1 construct: host or cells: E. coli
Assay: HSP90 radioligand filter binding test, competition with [3H]17AAG
Conditions: [3H]17AAG 0.08 μM; HSP90 1.5 μg/assay; 22° C., 30 min; read-out: HSP90 inhibition IC50
From the text: The binding of geldanamycin or 17-allylamino-17-demethoxygeldanamycin (17AAG) to HSP90 and competitive inhibition thereof can be utilised in order to determine the inhibitory activity of the compounds according to the invention (Carreras et al. 2003, Chiosis et al. 2002).
In the specific case, a radioligand filter binding test is used. The radioligand used here is tritium-labelled 17-allylaminogeldanamycin, [3H]17AAG. This filter binding test allows a targeted search for inhibitors which interfere with the ATP binding site.
• Recombinant human HSP90α (E. coli expressed, 95% purity); • [3H]17AAG (17-allylaminogeldanamycin, [allylamino-2,3-^3H. Specific activity: 1.11×10^12 Bq/mmol (Moravek, MT-1717); • HEPES filter buffer (50 mM HEPES, pH 7.0, 5 mM MgCl2, BSA 0.01%) Multiscreen FB (1 μm) filter plate (Millipore, MAFBNOB 50). Method
The 96-well microtitre filter plates are firstly irrigated and coated with 0.1% of polyethylenimine.
The test is carried out under the following conditions: • Reaction temperature 22° C. • Reaction time: 30 min., shaking at 800 rpm • Test volume: 50 μl • Final concentrations: • 50 mM HEPES HCl, pH 7.0, 5 mM MgCl2, 0.01% (w/v) BSA • HSP90:1.5 μg/assay • [3H]17AAG: 0.08 μM.
At the end of the reaction, the supernatant in the filter plate is removed by suction with the aid of a vacuum manifold (Multiscreen Separation System, Millipore), and the filter is washed twice.
The filter plates are then measured in a beta counter (Microbeta, Wallac) with scintillator (Microscint 20, Packard).
“% of control” is determined from the “counts per minutes” values and the IC-50 value of a compound is calculated therefrom.

pIC50	SMILES
6.00	COc1ccc(-c2c(C#N)c(N)nc3sc(C(N)=O)c(N)c23)cc1OC [Compound A1, 2-aminocarbonyl-3,6-diamino-5-cyano-4-(3,4-dimethoxyphenyl)thieno[2,3-b]pyridine]
5.60	CCOC(=O)CCCCCOc1cc(-c2c(C#N)c(N)nc3sc(C(N)=O)c(N)c23)ccc1OC [Compound A4, 2-aminocarbonyl-3,6-diamino-5-cyano-4-[3-(5-ethoxycarbonylpentyloxy)-4-methoxyphenyl]thieno[2,3-b]pyridine]
6.05	COc1ccc(-c2c(C#N)c(N)nc3sc(C(N)=O)c(N)c23)cc1OCCCCCC(=O)O [Compound A7b, 2-aminocarbonyl-3,6-diamino-5-cyano-4-[3-(5-carboxypentyloxy)-4-methoxyphenyl]thieno[2,3-b]pyridine]
5.89	CCOC(=O)CCCOc1cc(-c2c(C#N)c(N)nc3sc(C(N)=O)c(N)c23)ccc1OC [Compound A7c, 2-aminocarbonyl-3,6-diamino-5-cyano-4-[3-(3-ethoxycarbonylpropoxy)-4-methoxyphenyl]thieno[2,3-b]pyridine]
4.85	CCOC(=O)c1sc2nc(N)c(C#N)c(-c3ccc(OC)c(OC)c3)c2c1N [Compound A9, 2-ethoxycarbonyl-3,6-diamino-5-cyano-4-(3,4-dimethoxyphenyl)thieno[2,3-b]pyridine]
5.85	COc1ccc(-c2c(C#N)c(N)nc3sc(C(N)=O)c(N)c23)cc1OCc1ccccc1C [Compound A11]
6.11	COc1ccc(-c2c(C#N)c(N)nc3sc(C(N)=O)c(N)c23)cc1OCc1cccc(C(F)(F)F)c1 [Compound A21]
5.48	COc1ccc(-c2c(C#N)c(N)nc3sc(C(N)=O)c(N)c23)cc1OCC(N)=O [Compound A30]
6.13	COc1ccc(-c2c(C#N)c(N)nc3sc(C(N)=O)c(N)c23)cc1OCc1ccc(C(=O)O)cc1 [Compound A689]
6.17	COc1ccc(-c2c(C#N)c(N)nc3sc(C(N)=O)c(N)c23)cc1OCc1cccc(OC(F)F)c1 [Compound A693]

SMILES	pIC50
CCOC(=O)CCCCOc1cc(-c2c(C#N)c(N)nc3sc(C(N)=O)c(N)c23)ccc1OC [Compound A7, 2-aminocarbonyl-3,6-diamino-5-cyano-4-[3-(4-ethoxycarbonylbutoxy)-4-methoxyphenyl]thieno[2,3-b]pyridine]	5.82
COc1ccc(-c2c(C#N)c(N)nc3sc(C(N)=O)c(N)c23)cc1OCCCCC(=O)O [Compound A7a, 2-aminocarbonyl-3,6-diamino-5-cyano-4-[3-(4-carboxybutoxy)-4-methoxyphenyl]thieno[2,3-b]pyridine]	6.19
